Experimental data from patent US20100184802A1, “Bicycloheteroaryl Compounds as P2X7 Modulators and Uses Thereof” (priority 2006, published 2010).

Columns and labels:
[1] = Half-life in human liver microsomes (HLM); assay type: in vitro ADME; settings: human liver microsomes (HLM, HL101); human liver microsomes 0.78 mg/mL, 1 μM compound, NADPH, pH 7.4, 37° C.
Procedure: Test compounds (1 μM) are incubated with 3.3 mM MgCl2 and 0.78 mg/mL HLM (HL101) in 100 mM potassium phosphate buffer (pH 7.4) at 37° C. on the 96-deep well plate. The reaction mixture is split into two groups, a non-P450 and a P450 group. NADPH is only added to the reaction mixture of the P450 group. An aliquot of samples of P450 group is collected at 0, 10, 30, and 60 min time point, where 0 min time point indicated the time when NADPH is added into the reaction mixture of P450 group. […] Collected aliquots are extracted with acetonitrile solution containing an internal standard. […] The compound concentration in supernatant is measured by LC/MS/MS system.
The half-life value is obtained by plotting the natural logarithm of the peak area ratio of compounds/internal standard versus time. The slope of the line of best fit through the points yields the rate of metabolism (k). This is converted to a half-life value using following equations:

[2] = target: T1, P2X7 receptor (IL-1β release from THP-1 cells) (Homo sapiens, UniProt Q99572); experiment: IL-1β release assay in differentiated THP-1 cells stimulated with BzATP (Example 9); assay type: cell-based; settings: for inhibition at 0.3 µM: 0.3 μM concentration; for inhibition at 0.3 µM / inhibition at 0.1 µM: BzATP 250 uM, read-out: IL-1β % Inhib. @ 0.3 or 0.1 μM; for IC50: released IL-1β as in Example 9, four parameter logistic fit; for inhibition at 0.1 µM: 0.1 μM concentration
T1 construct: host or cells: THP-1 cells differentiated with LPS and IFN-γ
T1 sequence (Q99572 1-595): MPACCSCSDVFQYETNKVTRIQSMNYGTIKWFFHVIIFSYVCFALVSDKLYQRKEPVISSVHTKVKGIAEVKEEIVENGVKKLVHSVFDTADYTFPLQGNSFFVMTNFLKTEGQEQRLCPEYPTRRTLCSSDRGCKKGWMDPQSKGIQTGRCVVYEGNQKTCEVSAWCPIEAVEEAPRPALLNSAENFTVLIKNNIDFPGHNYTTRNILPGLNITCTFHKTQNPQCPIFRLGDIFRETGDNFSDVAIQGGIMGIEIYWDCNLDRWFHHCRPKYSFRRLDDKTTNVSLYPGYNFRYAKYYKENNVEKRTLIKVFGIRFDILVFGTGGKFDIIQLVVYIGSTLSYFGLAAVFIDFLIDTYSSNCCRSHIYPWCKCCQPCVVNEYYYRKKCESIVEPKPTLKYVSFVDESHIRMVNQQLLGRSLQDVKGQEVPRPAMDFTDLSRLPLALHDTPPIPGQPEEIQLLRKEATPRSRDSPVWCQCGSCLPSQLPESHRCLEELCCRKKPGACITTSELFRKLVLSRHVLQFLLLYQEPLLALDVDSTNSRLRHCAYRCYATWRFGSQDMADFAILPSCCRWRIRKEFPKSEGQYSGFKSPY
Procedure: The cells are then pretreated for 30 minutes with the compound of interest at the appropriate concentration in RPMI media containing 100 IU/mL penicillin, 100 ug/mL streptomycin. […] 30 uL of cell supernatant is then collected and IL-1β levels determined via ELISA (R&D systems Cat. #HSLB50) according to manufacturer's recommendations using the Tecan Safire plate reader. Background adjusted IL-1β levels of drug treated and non-treated cells are used to calculate the percent inhibition.
The compounds set forth in Table 1 were tested for activity in a cellular model as described herein. […] Measurements were made and IC50 values, presented in Table 2, below, were determined by fitting the data to a four parameter logistic equation using GraphPad Prism software (GraphPad Software, Inc). The equation may be expressed by the following formula:
Y=Bottom+(Top−Bottom)/(1+10̂((Log EC50−X)*HillSlope))
Where X is the logarithm of concentration, Y is the response and Y starts at Bottom and goes to Top with a sigmoid shape.

| SMILES | half-life at 1 μM [1] [min] | inhibition at 0.3 µM [2] [%] | IC50 [2] [nM] | inhibition at 0.1 µM [2] [%] |
| --- | --- | --- | --- | --- |
| O=C(CC12CC3CC(CC(C3)C1)C2)Nc1cccc2c(=O)n(CCO)ccc12 [Compound 511] | 27 | > 76 | 1.34 |  |
| O=C(CC12CC3CC(CC(C3)C1)C2)Nc1cccc2c1CCN(CC1CCNCC1)C2=O [Compound 512] | 44.4 | > 76 | 7.62 |  |
| O=C(CC12CC3CC(CC(C3)C1)C2)Nc1cccc2c(=O)n(C(CO)Cc3c[nH]cn3)ccc12 (stereo not shown) [Compound 515] | 91.2 | > 76 | 1.3 |  |
| CC(CO)n1ccc2c(NC(=O)CC34CC5CC(CC(C5)C3)C4)cccc2c1=O (stereo not shown) [Compound 517, 2-Adamantan-1-yl-N-[2-(2-hydroxy-1-methyl-ethyl)-1-oxo-1,2-dihydro-isoquinolin-5-yl]-acetamide] | 26.4 | > 76 | 0.33 |  |
| CC12CC3CC(C)(C1)CC(CC(=O)Nc1cccc4c(=O)n(C(CO)CO)ccc14)(C3)C2 [Compound 519] | 42.6 | > 76 | 0.11 |  |
| CC(O)Cn1ccc2c(NC(=O)C3C[C@@H]4CC[C@H]3C4)cccc2c1=O (stereo partly shown) [Compound 567] |  |  |  | 26 to 50 |
| CC(C)(O)Cn1ccc2c(NC(=O)[C@H]3CC[C@H](C)CC3)cccc2c1=O [Compound 568] |  |  |  | 0 to 25 |
| CC(C)(O)Cn1ccc2c(NC(=O)CC3C[C@@H]4CC[C@H]3C4)cccc2c1=O (stereo partly shown) [Compound 569] |  |  |  | 26 to 50 |
| CC(C)(O)Cn1ccc2c(NC(=O)[C@@]34C[C@@H]5C[C@@H](C[C@@H]3C5)C4)cccc2c1=O [Compound 570] |  |  |  | 0 to 25 |
| CC(C)(O)Cn1ccc2c(NC(=O)C3C[C@@H]4CC[C@H]3C4)cccc2c1=O (stereo partly shown) [Compound 571] |  |  |  | 26 to 50 |
| CC1(C)CC(C)(C)CC(O)(CC(=O)Nc2cccc3c(=O)n(C(CO)CO)ccc23)C1 [Compound 573] |  | > 76 | 81.3 |  |
| C[C@@H](C(N)=O)n1ccc2c(NC(=O)CC34CC5CC(CC(O)(C5)C3)C4)cccc2c1=O [Compound 574] |  | 0 to 25 | > 1000 |  |
| NC(=O)[C@H](CO)n1ccc2c(NC(=O)CC3CCCCCC3)cccc2c1=O [Compound 575, (S)-2-[5-(2-Cycloheptyl-acetylamino)-1-oxo-1H-isoquinolin-2-yl]-3-hydroxy-propionamide] |  | > 76 | 40.8 |  |
| O=C(CC1CCCCCC1)Nc1cccc2c(=O)n(C[C@H]3CCCN3)ccc12 [Compound 576] |  | > 76 |  |  |
| O=C(CC1CCCCCC1)Nc1cccc2c(=O)n(C[C@@H]3CCCN3)ccc12 [Compound 577] |  | > 76 |  |  |
| O=C(CC1(O)CCCCCC1)Nc1cccc2c(=O)n(C[C@H]3CCCN3)ccc12 [Compound 578, 2-(1-Hydroxy-cycloheptyl)-N-(1-oxo-2-(R)-1-pyrrolidin-2-ylmethyl-1,2-dihydro-isoquinolin-5-yl)-acetamide] |  | > 76 | 111 |  |
| C[C@H](C(N)=O)n1ccc2c(NC(=O)CC34CC5CC(CC(O)(C5)C3)C4)cccc2c1=O [Compound 581] |  | > 76 | 48.2 |  |
| CC1(C)CC(CC(=O)Nc2cccc3c(=O)n(CCO)ccc23)CC(C)(C)C1 [Compound 584, N-[2-(2-Hydroxy-ethyl)-1-oxo-1,2-dihydro-isoquinolin-5-yl]-2-(3,3,5,5-tetramethylcyclohexyl)-acetamide] |  | > 76 | 1.8 |  |
| CC(C)C[C@H](CO)n1ccc2c(NC(=O)CC34CC5CC(CC(C5)C3)C4)cccc2c1=O [Compound 585, 2-Adamantan-1-yl-N-[2-((R)-1-hydroxymethyl-3-methyl-butyl)-1-oxo-1,2-dihydro-isoquinolin-5-yl]-acetamide] |  | > 76 | 1.38 |  |

| SMILES | half-life at 1 μM [1] [min] | inhibition at 0.3 µM [2] [%] | IC50 [2] [nM] | inhibition at 0.1 µM [2] [%] |
| --- | --- | --- | --- | --- |
| C[C@H](C(N)=O)n1ccc2c(NC(=O)CC3CC(C)(C)CC(C)(C)C3)cccc2c1=O [Compound 588] |  | > 76 | 0.929 |  |
| CC(C)C[C@H](CO)n1ccc2c(NC(=O)CC3CCCCCC3)cccc2c1=O [Compound 590] |  | > 76 | 8.3 |  |
| CC(C)[C@H](CO)n1ccc2c(NC(=O)CC3CCCCCC3)cccc2c1=O [Compound 591, 2-Cycloheptyl-N-[2-((R)-1-hydroxymethyl-2-methyl-propyl)-1-oxo-1,2-dihydro-isoquinolin-5-yl]-acetamide] |  | > 76 | 3.42 |  |
| CNC(=O)[C@@H](C(C)C)n1ccc2c(NC(=O)CC34CC5CC(CC(C5)C3)C4)cccc2c1=O [Compound 592, (R)-2-[5-(2-Adamantan-1-yl-acetylamino)-1-oxo-1H-isoquinolin-2-yl]-3,N-dimethyl-butyramide] |  | > 76 | 1.21 |  |
| CC1(C)CC(CC(=O)Nc2cccc3c(=O)n([C@@H](C(N)=O)c4ccccc4)ccc23)CC(C)(C)C1 [Compound 593, (R)-2-{1-Oxo-5-[2-(3,3,5,5-tetramethylcyclohexyl)-acetylamino]-1H-isoquinolin-2-yl}-2-phenyl-acetamide] |  | > 76 | 4.09 |  |
| CC(C)[C@H](C(=O)NC1CC1)n1ccc2c(NC(=O)CC34CC5CC(CC(C5)C3)C4)cccc2c1=O [Compound 594] |  | 26 to 50 | 303 |  |
| CC(C)[C@H](C(=O)NC1CC1)n1ccc2c(NC(=O)CC3CCCCCC3)cccc2c1=O [Compound 595, (R)-2-[5-(2-Cycloheptyl-acetylamino)-1-oxo-1H-isoquinolin-2-yl]-N-cyclopropyl-3-methyl-butyramide] |  | > 76 | 20.7 |  |
| CC(C)C[C@H](CO)n1ccc2c(NC(=O)CC3(O)CCCCCC3)cccc2c1=O [Compound 596] |  | > 76 | 5.59 |  |
| CC(C)[C@H](C(N)=O)n1ccc2c(NC(=O)CC3CCCCCC3)cccc2c1=O [Compound 597, (R)-2-[5-(2-Cycloheptyl-acetylamino)-1-oxo-1H-isoquinolin-2-yl]-3-methyl-butyramide] |  | > 76 | 2.38 |  |
| C[C@H](C(=O)NC1CC1)n1ccc2c(NC(=O)CC34CC5CC(CC(C5)C3)C4)cccc2c1=O [Compound 598, (R)-2-[5-(2-Adamantan-1-yl-acetyl-amino)-1-oxo-1H-isoquinolin-2-yl]-N-cyclopropyl-propionamide] |  | > 76 | 0.698 |  |
| CC(C)[C@H](C(=O)O)n1ccc2c(NC(=O)CC34CC5CC(CC(C5)C3)C4)cccc2c1=O [Compound 603] |  | > 76 | 22 |  |
| C[C@@H](CO)n1ccc2c(NC(=O)CC3CCCCCC3)cccc2c1=O [Compound 605, 2-Cycloheptyl-N-[2-((S)-2-hydroxy-1-methyl-ethyl)-1-oxo-1,2-dihydro-isoquinolin-5-yl]-acetamide] |  | > 76 | 66.5 |  |
| C[C@H](C(=O)O)n1ccc2c(NC(=O)CC3CCCCCC3)cccc2c1=O [Compound 607, (R)-2-[5-(2-Cycloheptyl-acetylamino)-1-oxo-1H-isoquinolin-2-yl]-propionic acid] |  | > 76 | 92.1 |  |
| C[C@H](C(N)=O)n1ccc2c(NC(=O)[C@H](C)C3CCCCCC3)cccc2c1=O [Compound 608] |  | > 76 | 70.8 |  |
| C[C@H](C(=O)Nc1cccc2c(=O)n([C@H](C)C(N)=O)ccc12)C1CCCCCC1 [Compound 609] |  | > 76 | 6.16 |  |
| CC(C)[C@H](C(=O)O)n1ccc2c(NC(=O)CC3CCCCCC3)cccc2c1=O [Compound 610] |  | > 76 | 44.7 |  |
| CC(=O)NCCn1ccc2c(NC(=O)CC3CCCCCC3)cccc2c1=O [Compound 611, N-[2-(2-Acetylamino-ethyl)-1-oxo-1,2-dihydro-isoquinolin-5-yl]-2-cycloheptyl-acetamide] |  | 51 to 75 |  |  |
| CC(C)(CO)n1ccc2c(NC(=O)CC34CC5CC(CC(C5)C3)C4)cccc2c1=O [Compound 613, 2-Adamantan-1-yl-N-[2-(2-hydroxy-1,1-dimethyl-ethyl)-1-oxo-1,2-dihydro-isoquinolin-5-yl]acetamide] |  | > 76 | 3.78 |  |
| CC(C)(CO)n1ccc2c(NC(=O)CC3CCCCCC3)cccc2c1=O [Compound 614] |  | > 76 | 91.4 |  |
